# According to ChEMBL document CHEMBL3351643, “A potent cyclic peptide targeting SPSB2 protein as a potential anti-infective agent” (J Med Chem, 2014):
# Active and inactive are the calls of the source. No cut-off for these calls is given here. Where a SMILES comes first, the peptide text is derived from it. Bridges are numbered along the chain shown (N, C = ends).
# Experiments:
# [1] = Stability of the compound in 1 mM DTT at 0.5 mg/ml after 15 mins by redox stability/RP-HPLC assay; format: physicochemical; conditions: 0.25 h
# [2] = biological target: T1, SPRY domain-containing SOCS box protein 2 (Mus musculus) (UniProt O88838); test: Displacement of full-length of iNOS from SPSB2 in LPS/IFNgamma-stimulated mouse BMDM cell lysate at 10 uM after 2 hrs by Western blotting analysis; format: cell-free
# T1 sequence (whole entry): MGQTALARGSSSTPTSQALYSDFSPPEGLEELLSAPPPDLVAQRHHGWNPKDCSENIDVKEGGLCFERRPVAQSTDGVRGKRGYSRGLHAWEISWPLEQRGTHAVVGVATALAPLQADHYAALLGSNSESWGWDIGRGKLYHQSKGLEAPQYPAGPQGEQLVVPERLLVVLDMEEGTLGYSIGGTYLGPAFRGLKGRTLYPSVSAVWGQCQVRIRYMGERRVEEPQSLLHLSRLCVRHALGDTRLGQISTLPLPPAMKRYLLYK
# [3] = Stability of the compound assessed as trypsin (unknown origin)-mediated drug degradation at 200:1 peptide to enzyme ratio after 24 to 96 hrs by RP-HPLC analysis; format: ADME; conditions: human
# [4] = biological target: T2, SPRY domain-containing SOCS box protein 2 (Homo sapiens, UniProt Q99619); test: Binding affinity to GST-tagged SPSB2 (unknown origin) expressed in Escherichia coli BL21 (DE3) by SPR assay
# T2 sequence (Q99619 whole entry): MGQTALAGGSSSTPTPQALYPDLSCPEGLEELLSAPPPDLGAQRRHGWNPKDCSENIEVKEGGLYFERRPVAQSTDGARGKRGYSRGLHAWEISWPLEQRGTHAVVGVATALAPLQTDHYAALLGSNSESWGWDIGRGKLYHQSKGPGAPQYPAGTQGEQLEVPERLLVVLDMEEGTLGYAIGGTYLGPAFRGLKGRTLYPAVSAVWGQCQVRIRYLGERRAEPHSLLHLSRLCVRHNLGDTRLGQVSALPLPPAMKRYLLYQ
# [5] = Stability of the compound assessed as pepsin (unknown origin)-mediated drug degradation at 200:1 peptide to enzyme ratio after 24 to 96 hrs by RP-HPLC analysis; format: ADME; conditions: human
# [6] = Stability of the compound in 1:10 ratio of DTT:H2O2 at 0.5 mg/ml after 1 hr by redox stability/RP-HPLC assay; format: physicochemical
# [7] = Stability of the compound in 1:1 ratio of DTT:H2O2 at 0.5 mg/ml after 1 hr by redox stability/RP-HPLC assay; format: physicochemical; conditions: 1:1 DTT:H2O2; read-out: Stability
# [8] = Stability of the compound assessed as alpha-chymitrypsin (unknown origin)-mediated drug degradation at 200:1 peptide to enzyme ratio after 24 to 96 hrs by RP-HPLC analysis; format: ADME; conditions: human
# [9] = Stability in human plasma assessed as compound remaining at 50 uM after 24 hrs by RP-HPLC analysis; format: ADME, cell-free; conditions: read-out: Stability
compound,measurement,setting,value
CC[C@H](C)[C@H](NC(=O)[C@H](CC(=O)O)NC(=O)[C@@H](NC(=O)[C@H](CS)NC(C)=O)C(C)C)C(=O)N[C@@H](CC(N)=O)C(=O)N[C@@H](CC(N)=O)C(=O)N[C@@H](CC(N)=O)C(=O)N[C@@H](CS)C(N)=O (Ac-CVDINNNC-NH2),Stability,[1],Unstable
same,inhibition,[2],Active
same,Stability,[3],Stable
same,Kd,[4],35.1 nM
same,Stability,[5],Stable
same,Stability,[6],Stable
same,"remaining at 1 h, 0.5 mg/ml",[7],55%
same,Stability,[8],Stable
CC[C@H](C)[C@@H]1NC(=O)[C@H](CC(=O)O)NC(=O)[C@H](C(C)C)NC(=O)[C@@H](NC(C)=O)CSSC[C@@H](C(N)=O)NC(=O)[C@H](CC(N)=O)NC(=O)[C@H](CC(N)=O)NC(=O)[C@H](CC(N)=O)NC1=O (Ac-CVDINNNC-NH2; disulfide 1-8),Kd,[4],4.4 nM
Ac-DINNN-NH2,Kd,[4],318 nM
Ac-KEEKDINNNVKKT-NH2,"remaining at 24 h, 50 µM",[9],83%
same,Stability,[5],Unstable
